The text below walks through data of patent US10852311B2, “Additive channels” (Emulate Inc., priority 2016, dated 2020).

Structures can show the parent of a compound that is named as a salt. Positions of bridges follow the written chain, without caps; N, C: chain ends. Non-standard residues stand in square brackets, D forms with d. Residues, ends and D or L forms follow the SMILES beside them. hArg = N=C(N)NCCCC[C@H](N)C(=O)O; Mpa = O=C(O)CCS

Data set [1] concerns platelets. The data set can be described thus: Platelet activation quality control by p-selectin expression. In kind it is cell-based, human. The note with it: control blood upon activation by ADP. The method, then:
To test for a thrombic event, blood was collected from 4 donors, the as blood alone or blood treated with hu5C8 alone (240 μg/mL), sCD40L (10 ng/ml) alone or with combined hu5C8/sCD40L was incubated for 20 minutes at room temperature. Each sample was further incubated for 5 minutes with fluorescent labels for platelets and fibrinogen. As a standard quality control, the control blood was tested for platelet activation using p-selection expression. We confirmed that platelets in control blood were not activated but upon activation by ADP, over 90% of platelet was positive for p-selectin.

In a further data set the test system is fibrin. The data set can be described thus: Vessel-On-Chip blood perfusion, fibrin deposition by fluorescent fibrinogen imaging. Format: cell-based, human. The method, then: (§1) A medical grade plastic reservoir was mounted on the chip, then 800 μl of the blood sample was pipetted into the reservoir. The chip was perfused with the blood by withdrawing it at a rate of 60 μl/minute using a syringe pump. The citrated blood was re-calcified 2 minutes after the beginning of each experiment by adding 100 μl/ml of a solution containing 100 mM calcium chloride and 75 mM magnesium chloride to the blood to permit calcium- and magnesium-dependent platelet function and coagulation.
When analyzing the formation of fibrin, 10 μg/ml of fluorescently labeled fibrinogen (Alexa 488, Invitrogen) was also added to the blood. While fluorescent fibrinogen was barely detected as a diffused fluorescence, fibrin deposition on inflamed cells and sparse clots was easily distinguished since fibrin formed filamentous structures produce a signal intensity that is clearly observed above a background threshold.
(§2) Chips perfused with blood samples were immediately imaged via fluorescence microscopy (Olympus IX83, 10X objective UPLFLN10X2, Circa-Flash4.0 CMOS Camera). Each chamber was inspected along its entire length and 5 images (about […]) were captured from the central area of the chamber. Image processing and quantification was performed with an automatic macro compiled in […] and numerical values corresponding to platelet coverage or fibrin florescence were collected and statistically analyzed in Graphpad Prism V7.
(§3) A percentage of signal coverage (or Platelet coverage) was computed from the binary image as the ratio of bright pixels to the total number of pixels in the image. Image processing and quantification was performed with an automatic macro compiled in ImageJ ire order to ensure unbiased signal measurements. Numerical values corresponding to platelet coverage or fibrin fluorescence (signal intensity) were collected and statistically analyzed in Graphpad Prism V7.

For data set [2], the system named is thrombin anti-thrombin complex (TAT). In words: Thrombin-anti thrombin (TAT) measurement via ELISA in chip effluent. Format: cell-based, human. The note with it: for TAT increment: Eptifibatide treatment. The method, then: Thrombin Anti-Thrombin (TAT) levels were analyzed in plasma from blood flowing out of the chip device by removing a sample from the outflow port. Thus TAT levels were evaluated in sample effluents collected from the outflow port of the chip using the Human TAT ELISA Kit (Siemens Healthineers) according to the user manual.
Blood sampled from the Vessel-On-Chip outflow port was analyzed for thrombin anti-thrombin complex (TAT), a factor released upon activation of the coagulation cascade and one of the biomarkers associated with thrombotic events occurring in patients affected with deep vein thrombosis (DVT) or SLE^45,46. TAT is an accepted clinical biomarker for procoagulation^48,49. An enzyme-linked immunosorbent assay (ELISA) was used to quantify the thrombin anti-thrombin complex (TAT).

For data set [3], the system named is platelets. In words: Vessel-On-Chip blood perfusion, platelet coverage/aggregation by fluorescence imaging. In kind it is cell-based, human. The method, then: At the start of each experiment, two vials of cells were thawed and expanded for 3 days in EGM-2. Cells were gently detached with 0.05% Trypsin (BD Biosciences, 2-4 minutes incubation at room temperature) and 8×10^6 cells/ml were introduced into the ECM-coated microchannels. After incubating for 30 minutes at 37° C., cell attachment to the bottom surface of the chamber was assessed by microscopy. Then, a second flask of HUVECs was trypsinized and used to seed the upper surface of the microfluidic chamber by introducing the cell suspension, inverting the chip, and incubating at 37° C. for 30 minutes. Each microfluidic chamber was gently flushed with EGM-2 twice in order to remove unbound cells, then chips were incubated overnight at 37° C. The next day, chips were connected to a syringe pump (Chemyx Fusion 200) and perfused with EGM-2 for 3 days (30 μL/hr) to provide continuous supply of fresh media. On day 3, medium was switched to EGM-2 with low serum (1% FBS, no VEGF) to promote cell synchronization overnight. On day 4, chips were used for blood perfusion experiments.
Citrated human blood (Research Blood Components, Cambridge, Mass.) was used within 4 hours of a blood draw in order to minimize pre-analytical effects on platelet function. Before every experiment, each one of the endothelialized channels (i.e. microchannels having an endothelial cell layer) was inspected via light microscopy. Samples showing any sign of discontinuity in the endothelium were discarded.
Platelets were labeled with human CD41-PE antibody (10 μL/ml, Invitrogen) directly added to the blood and incubated at room temperature for 5 minutes.
as §1, §2, §3

The subject of another data set is re-calcified blood. In words: On-chip anticoagulation of outflowing blood through the anticoagulant port. Also on record: species or system human. The note with it: sodium citrate through the anticoagulant port vs chips without anticoagulant port. The source says:
In one embodiment, the surface area of the vascular compartment of a microfluidic chip used herein is greater in comparison to the original lung-on-a-chip design because the original size was too small for optimal blood component interaction with endothelium. As described herein, a 1 mm wide and 200 μm tall chamber provided an increase in size of the vascular surface area exposed to laminar flow, as compared to an exemplary lung-on-chip. An anticoagulant port, referred to by several names, including but not limited to EDTA input, citrate input, etc., was added near the outflow port of the vascular chamber. Thus two ports (anticoagulant port and vascular outflow i.e. outflow) were linked through a microfluidic channel (dimension of 250 um wide by 100 um height) to allow for perfusion of anticoagulant solution during the experiment. In some embodiments, modifications were made in the […] dimension. The outlet of the chip was connected to a pulling syringe pump with a system of tubing and connectors made of medical grade silicon that excludes any metal components or potential causes of platelet activation. […]

For the next data set, the system named is ICAM1. In words: ICAM1 immunostaining of endothelium on chip. Format: cell-based, human. The note with it: TNF-α stimulated endothelium compared to the control. The method, then: In some experiment endothelial cells were stimulate with 50 ng/ml of TNF (Sigma) for 6 hours in order to induce vascular inflammation before blood perfusion.
For data set [4], the system named is platelets. The data set can be described thus: Hu5C8 mediated thrombosis on-chip, FcγRIIa dependence (platelet coverage, fibrin deposition, TAT). In kind it is cell-based, human. An excerpt:
Recent studies conducted on humanized mice expressing the human Fcγ receptors (FCGR2A) have shown that this receptor plays a role in thrombosis leading to the IC-mediated toxicity^12,16,21. […] In order to investigate if the IC5c8-induced thrombosis that we observed in our vessel-on-chip system also relies on an Fc-mediated mechanism, we used two different tool molecules: IgG2σ and IV.3 (FIG. 25A). The IgG2σ variant of hu5C8 has an engineered Fc region^48 that eliminates affinity for the FcγRIIa, while the monoclonal antibody IV.3 is a blocking antibody binding to FcγRIIa. […]
Some of the blood samples were treated with IV.3 (1 μg/ml) for 10 minutes to block the FcγRIIa, and then incubated for 20 more minutes with IC5c8. […] We tested 15 donors and all the tested conditions described above were tested in duplicates and analyzed as percentage of platelet coverage based on fluorescence microscopic imaging (FIG. 25B). […]
Blood from several human donors were aliquoted into groups for the following treatments: controls (PBS), sCD40L, combined hu5C8/sCD40L, combined hu5C8 (IgG2σ)/sCD40L combined, and combined hu5C8/sCD40L/IV.3. Each condition was tested with a minimum of 3 donors to a maximum of 15 donors, and all conditions were tested in duplicates and analyzed for platelet coverage (FIG. 25B), fibrin deposition (FIG. 25C), or increased formation of TAT measured in the eluates (FIG. 25D). […]

The mark [5] stands for this setting: Eptifibatide 2 ug/ml, endothelium inflamed with TNF-α, n=4.
Setting [6] is: Eptifibatide 2 ug/ml, following treatment with sCollagen, n=4.
Where [7] appears, read: Eptifibatide 2 ug/ml, samples treated with TNF-α, n=4.
[8] abbreviates: TNF-α 50 ng/ml 6 hours on endothelium, or sCollagen 10 μg/ml in blood, vs control blood.
Setting [9] is: hu5C8 240 μg/mL, sCD40L 10 ng/ml, 4 donors, 60 μl/minute about 10 minutes, vs untreated blood.

As for `Nc1ncnc2c1ncn2[C@@H]1O[C@H](COP(=O)(O)OP(=O)(O)O)[C@@H](O)[C@H]1O` [ADP], the “platelet positive for p-selectin” value in the data set on platelets [1] is “over 90%”.

Consider `N=C(N)NCCCC[C@@H]1NC(=O)CCSSC[C@@H](C(N)=O)NC(=O)[C@@H]2CCCN2C(=O)[C@H](Cc2c[nH]c3ccccc23)NC(=O)[C@H](CC(=O)O)NC(=O)CNC1=O` [Eptifibatide] ([Mpa][hArg]GDWPC-NH2; disulfide 1-7), for which, in the data set on fibrin (setting [5]), the fibrin clot formation entry is on record as “significantly inhibited”. The “inhibitory effect on fibrin clot formation” value with fibrin (setting [6]) is “comparatively modest”. For the same molecule, the “fibrin signal (image analysis)” value in the data set on fibrin (setting [7]) is “a significant amount of fibrin signal was still detectable”. Moreover, the TAT increment result is reported as “did not inhibit” in data set [2] (TNF-α-induced inflammation) and “entirely suppressed” in data set [2] (sCollagen treatment). Also, in the data set with platelets [3] (setting [5]), the platelet aggregation result is listed as “significantly inhibited”. In addition, the “inhibitory effect on platelet aggregation” value with platelets [3] (setting [6]) is “comparatively modest”. The “platelet adhesion (image analysis)” value in the data set with platelets [3] (setting [7]) is “completely inhibited”.

Regarding `O=C(O)CC(O)(CC(=O)O)C(=O)O` [sodium citrate], the “state of blood collected from the effluent” value in the data set with re-calcified blood was “soluble (not clotted) blood”.

TNF-α: in the data set on fibrin (setting [8]), the fibrin signal intensity entry is “increased”. Moreover, the “levels of TAT” value in data set [2] (plasma from blood flowing out of the chip, FIG. 22B) was “significantly increased”. In the data set on platelets [3] (setting [8]), the “areas of platelet coverage” value is listed as “increased”. In the data set on ICAM1, the “expression of ICAM1 in the endothelium” value is “increased”.

“hu5C8 (IgG2σ): IgG2σ variant of hu5C8 with engineered Fc region that eliminates affinity for FcγRIIa”: the “signs of thrombosis in any of the endpoints” value in the data set on platelets [4] (combined with sCD40L (IV.3: combined hu5C8/sCD40L/IV.3)) was “did not show signs of thrombosis”. The hu5C8-mediated thrombosis result in the data set on platelets [4] (preformed IC, IV.3 1 μg/ml 10 minutes, 15 donors) is “suppressed”.

“hu5C8: humanized monoclonal IgG1 antibody against CD40L (anti-CD154)”: in the data set on fibrin (setting [9]), the “fibrin deposition on the endothelium” value was “no significant treatment-related effects”. Further, in the data set with platelets [3] (setting [9]), the “platelet aggregate formation on the endothelium” value is “no significant treatment-related effects”.
